From PubChem BioAssay (NCI)
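Each compound was tested at five concentrations against cells in 96-well plates for 48 hours. At the GI50, growth is halved. TGI: total growth inhibition.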

Legend:
Test in all cases: NCI-60 cell line screen, 48 h
[1] = tested on: HS 578T breast
[2] = tested on: HT29 colon
[3] = tested on: A549 NSCLC
[4] = tested on: RPMI-8226 leukemia
[5] = tested on: RXF 393 renal
[6] = tested on: SR leukemia
[7] = tested on: NCI-H522 lung
[8] = tested on: NCI-H460 lung
[9] = tested on: SNB-75 CNS
[10] = tested on: IGROV1 ovarian
[11] = tested on: T-47D breast
[12] = tested on: NCI-H226 lung
[13] = tested on: SK-MEL-5 melanoma
[14] = tested on: HCC-2998 colon
[15] = tested on: A498 renal
[16] = tested on: ACHN renal
[17] = tested on: HCT-15 colon
[18] = tested on: SN12C renal
[19] = tested on: SK-MEL-28 melanoma
[20] = tested on: BT-549 breast
[21] = tested on: MALME-3M melanoma
[22] = tested on: UO-31 renal
[23] = tested on: UACC-257 melanoma
[24] = tested on: OVCAR-4 ovarian
[25] = tested on: EKVX NSCLC
[26] = tested on: MDA-MB-231 breast
[27] = tested on: SF-295 CNS
[28] = tested on: HCT-116 colon
[29] = tested on: MOLT-4 leukemia
[30] = tested on: UACC-62 melanoma
[31] = tested on: MDA-MB-435
[32] = tested on: NCI/ADR-RES ovarian
[33] = tested on: SK-MEL-2 melanoma
[34] = tested on: MCF7 breast
[35] = tested on: COLO 205 colon
[36] = tested on: PC-3 prostate
[37] = tested on: SK-OV-3 ovarian
[38] = tested on: SNB-19 CNS
[39] = tested on: CCRF-CEM leukemia
[40] = tested on: SF-268 CNS
[41] = tested on: HL-60(TB) leukemia
[42] = tested on: K-562 leukemia
[43] = tested on: NCI-H23 lung
[44] = tested on: HOP-92 NSCLC
[45] = tested on: OVCAR-8 ovarian
[46] = tested on: CAKI-1 renal
[47] = tested on: 786-0 renal
[48] = tested on: U251 CNS
[49] = tested on: OVCAR-3 ovarian
[50] = tested on: DU-145 prostate
[51] = tested on: M14 melanoma
[52] = tested on: OVCAR-5 ovarian
[53] = tested on: KM12 colon
[54] = tested on: TK-10 renal
[55] = tested on: SF-539 CNS
[56] = tested on: HOP-62 NSCLC
[57] = tested on: LOX IMVI melanoma
[58] = tested on: SW-620 colon

With `COc1ccc(NC(/C(C(=O)C(=O)/C=C(\O)c2ccccc2)=C(\O)c2ccccc2)c2ccc(OC)cc2)cc1` (stereo unspecified) the TGI [1] was over 100 µM, the TGI [2] was over 100 µM and the TGI [3] was over 100 µM. For the same molecule, the TGI [4] was 69.1 µM, the TGI [5] was over 100 µM and the TGI [6] was over 100 µM. The TGI [7] was 50.5 µM, the TGI [8] was over 100 µM and the TGI [9] was 51.9 µM. It also gave a TGI [10] of over 100 µM, a TGI [11] of 81.4 µM and a TGI [12] of over 100 µM. The TGI [13] was over 100 µM, the TGI [14] was 62.3 µM and the TGI [15] was over 100 µM. For the same molecule, the TGI [16] was over 100 µM, the TGI [17] was over 100 µM and the TGI [18] was over 100 µM. The TGI [19] was over 100 µM, the TGI [20] was over 100 µM and the TGI [21] was 75.6 µM. It also gave a TGI [22] of over 100 µM, a TGI [23] of over 100 µM and a TGI [24] of over 100 µM. For the same molecule, the TGI [25] was 50.9 µM, the TGI [26] was over 100 µM and the TGI [27] was over 100 µM. It also gave a TGI [28] of over 100 µM, a TGI [29] of over 100 µM and a TGI [30] of over 100 µM. It also gave a TGI [31] of 59.1 µM, a TGI [32] of over 100 µM and a TGI [33] of 89 µM. For the same molecule, the TGI [34] was over 100 µM, the TGI [35] was over 100 µM and the TGI [36] was over 100 µM. The TGI [37] was over 100 µM, the TGI [38] was over 100 µM and the TGI [39] was over 100 µM. The TGI [40] was over 100 µM, the TGI [41] was 75.3 µM and the TGI [42] was over 100 µM. It also gave a TGI [43] of over 100 µM, a TGI [44] of 75.8 µM and a TGI [45] of over 100 µM. For the same molecule, the TGI [46] was over 100 µM, the TGI [47] was over 100 µM and the TGI [48] was over 100 µM. It also gave a TGI [49] of 94.1 µM, a TGI [50] of over 100 µM and a TGI [51] of over 100 µM. For the same molecule, the TGI [52] was over 100 µM, the TGI [53] was over 100 µM and the TGI [54] was over 100 µM. For the same molecule, the TGI [55] was over 100 µM and the TGI [56] was over 100 µM.

With `CCOC(=O)c1ccc(NC(=O)c2cccc(NC3=C(Cl)C(=O)N(Cc4ccccc4)C3=O)c2)cc1` the GI50 [1] was over 100 µM, the TGI [1] was over 100 µM and the GI50 [2] was over 100 µM. The TGI [2] was over 100 µM, the GI50 [3] was over 100 µM and the TGI [3] was over 100 µM. The GI50 [4] was 37.5 µM, the TGI [4] was over 100 µM and the GI50 [5] was over 100 µM. It also gave a TGI [5] of over 100 µM, a GI50 [7] of 62.9 µM and a TGI [7] of over 100 µM. For the same molecule, the GI50 [8] was over 100 µM, the TGI [8] was over 100 µM and the GI50 [9] was over 100 µM. The TGI [9] was over 100 µM, the GI50 [10] was 65 µM and the TGI [10] was over 100 µM. The GI50 [11] was over 100 µM, the TGI [11] was over 100 µM and the GI50 [12] was over 100 µM. For the same molecule, the TGI [12] was over 100 µM, the GI50 [13] was over 100 µM and the TGI [13] was over 100 µM. The GI50 [15] was over 100 µM, the TGI [15] was over 100 µM and the GI50 [16] was over 100 µM. The TGI [16] was over 100 µM, the GI50 [17] was over 100 µM and the TGI [17] was over 100 µM. It also gave a GI50 [18] of over 100 µM, a TGI [18] of over 100 µM and a GI50 [19] of over 100 µM. For the same molecule, the TGI [19] was over 100 µM, the GI50 [20] was over 100 µM and the TGI [20] was over 100 µM. It also gave a GI50 [23] of over 100 µM, a TGI [23] of over 100 µM and a GI50 [24] of over 100 µM. The TGI [24] was over 100 µM, the GI50 [25] was over 100 µM and the TGI [25] was over 100 µM. It also gave a GI50 [26] of 92 µM, a TGI [26] of over 100 µM and a GI50 [27] of over 100 µM. For the same molecule, the TGI [27] was over 100 µM, the GI50 [28] was over 100 µM and the TGI [28] was over 100 µM. For the same molecule, the GI50 [29] was 28.1 µM, the TGI [29] was 99.2 µM and the GI50 [30] was over 100 µM. The TGI [30] was over 100 µM, the GI50 [31] was over 100 µM and the TGI [31] was over 100 µM. The GI50 [33] was over 100 µM, the TGI [33] was over 100 µM and the GI50 [34] was 51.3 µM. The TGI [34] was over 100 µM, the GI50 [35] was over 100 µM and the TGI [35] was over 100 µM. For the same molecule, the GI50 [36] was over 100 µM, the TGI [36] was over 100 µM and the GI50 [37] was over 100 µM. The TGI [37] was over 100 µM, the GI50 [38] was over 100 µM and the TGI [38] was over 100 µM. The GI50 [39] was 15.7 µM, the TGI [39] was 65.9 µM and the GI50 [40] was 42.3 µM. It also gave a TGI [40] of over 100 µM, a GI50 [41] of 17.2 µM and a TGI [41] of 45.9 µM. It also gave a GI50 [57] of 60.3 µM, a TGI [57] of over 100 µM and a GI50 [42] of 33.3 µM. It also gave a TGI [42] of over 100 µM, a GI50 [44] of 78.8 µM and a TGI [44] of over 100 µM. It also gave a GI50 [45] of over 100 µM, a TGI [45] of over 100 µM and a GI50 [46] of over 100 µM. The TGI [46] was over 100 µM, the GI50 [47] was over 100 µM and the TGI [47] was over 100 µM. It also gave a GI50 [48] of over 100 µM, a TGI [48] of over 100 µM and a GI50 [49] of over 100 µM. For the same molecule, the TGI [49] was over 100 µM, the GI50 [50] was over 100 µM and the TGI [50] was over 100 µM. For the same molecule, the GI50 [51] was over 100 µM, the TGI [51] was over 100 µM and the GI50 [53] was over 100 µM. It also gave a TGI [53] of over 100 µM, a GI50 [54] of over 100 µM and a TGI [54] of over 100 µM. For the same molecule, the GI50 [58] was over 100 µM, the TGI [58] was over 100 µM and the GI50 [55] was over 100 µM. The TGI [55] was over 100 µM, the GI50 [56] was over 100 µM and the TGI [56] was over 100 µM.

Work on `CN1/C(=C/C=C/c2n(Cc3ccc4ccccc4c3)c(Cl)c(Cl)[n+]2Cc2ccc3ccccc3c2)Oc2ccccc21` yielded a GI50 [9] of 0.176 µM, a TGI [9] of 0.731 µM and a GI50 [15] of 0.198 µM. The TGI [15] was 0.756 µM, the GI50 [16] was 0.494 µM and the TGI [16] was 1.67 µM. For the same molecule, the GI50 [17] was 1.24 µM, the TGI [17] was 2.68 µM and the GI50 [19] was 0.505 µM. It also gave a TGI [19] of 1.75 µM, a GI50 [21] of 0.201 µM and a TGI [21] of 0.625 µM. For the same molecule, the GI50 [22] was 1.35 µM, the TGI [22] was 2.65 µM and the GI50 [23] was 0.338 µM. It also gave a TGI [23] of 1.44 µM, a GI50 [28] of 0.255 µM and a TGI [28] of 1.08 µM. The GI50 [31] was 0.327 µM, the TGI [31] was 1.09 µM and the GI50 [44] was 0.212 µM. For the same molecule, the TGI [44] was 0.685 µM, the GI50 [46] was 0.553 µM and the TGI [46] was 1.83 µM. The GI50 [50] was 0.403 µM, the TGI [50] was 1.54 µM and the GI50 [52] was 0.373 µM. The TGI [52] was 1.59 µM, the GI50 [58] was 0.294 µM and the TGI [58] was 1.15 µM.

Molecule `Cc1nccn1CC1CCc2c(c3ccccc3n2C)C1=O` (stereo unspecified) has a GI50 [2] of 27.9 µM, a TGI [2] of 49.2 µM and a GI50 [8] of 45.7 µM. It also gave a TGI [8] of 68.1 µM, a GI50 [9] of 56.5 µM and a GI50 [11] of 71.1 µM. The GI50 [13] was 66.8 µM, the GI50 [18] was 87.9 µM and the GI50 [20] was 77.3 µM. The GI50 [22] was 78.5 µM, the GI50 [23] was 42.3 µM and the TGI [23] was 64.3 µM. For the same molecule, the GI50 [27] was 39.1 µM, the TGI [27] was 60.9 µM and the GI50 [28] was 65.6 µM. It also gave a GI50 [31] of 90.2 µM, a GI50 [35] of 78.7 µM and a GI50 [45] of 49.8 µM. The GI50 [47] was 78.8 µM, the GI50 [48] was 81 µM and the GI50 [49] was 90.3 µM. It also gave a GI50 [52] of 95.3 µM and a GI50 [55] of 73.7 µM.
